Test results taken from patent US20030224978A1, “Compounds and methods for modulating apoptosis” (McGill University, priority 1996, published 2003).
“Also recorded” adds a separate entry of the source.

How the values were obtained:
HUVEC = format: cell-based, human; conditions: 3 h
L1 = L1 (Homo sapiens, UniProt P32004); experiment: Neurite outgrowth of mouse cerebellar neurons on 3T3 cells expressing L1 (Example 2); format: cell-based; set-up: expressed in transfected cells; host or cells: 3T3 cells; conditions: 500 μg/mL
NRK cells = experiment: Disruption of normal rat kidney (NRK) cell adhesion and E-cadherin immunostaining; format: cell-based; conditions: 1 mg/mL, 48 hours
Method: Within another such assay, the effect of a modulating agent on normal rat kidney (NRK) cells may be evaluated. According to a representative procedure, NRK cells (ATCC #1571-CRL) may be plated at 10-20,000 cells per 35 mm tissue culture flasks containing DMEM with 10% FCS and sub-cultured periodically (Laird et al., J. Cell Biol. 131:1193-1203, 1995). Cells may be harvested and replated in 35 mm tissue culture flasks containing 1 mm coverslips and incubated until 50-65% confluent (24-36 hours). At this time, coverslips may be transferred to a 24-well plate, washed once with fresh DMEM and exposed to modulating agent at a concentration of, for example, 1 mg/mL for 24 hours. Fresh modulating agent may then be added, and the cells left for an additional 24 hours. Cells may be fixed with 100% methanol for 10 minutes and then washed three times with PBS. Coverslips may be blocked for 1 hour in 2% BSA/PBS and incubated for a further 1 hour in the presence of mouse anti-E-cadherin antibody (Transduction Labs, 1:250 dilution). Primary and secondary antibodies may be diluted in 2% BSA/PBS. Following incubation in the primary antibody, coverslips may be washed three times for 5 minutes each in PBS and incubated for 1 hour with donkey anti-mouse antibody conjugated to fluorescein (diluted 1:200). Following further washes in PBS (3×5 min) coverslips can be mounted and viewed by confocal microscopy.
In the absence of modulating agent, NRK cells form characteristic tightly adherent monolayers with a cobblestone morphology in which cells display a polygonal shape. NRK cells that are treated with a modulating agent that disrupts E-cadherin mediated cell adhesion may assume a non-polygonal and elongated morphology (i.e., a fibroblast-like shape) within 48 hours of treatment with 1 mg/mL of modulating agent. Gaps appear in confluent cultures of such cells. In addition, 1 mg/mL of such a modulating agent reproducibly induces a readily apparent reduction in cell surface staining of E-cadherin, as judged by immunofluorescence microscopy (Laird et al., J. Cell Biol. 131:1193-1203, 1995), of at least 75% within 48 hours.
NRK cells (ATCC #1571-CRL) were plated at 10-20,000 cells per 35 mm tissue culture flasks containing DMEM with 10% FCS and sub-cultured periodically (Laird et al., J. Cell Biol. 131:1193-1203, 1995). Cells were harvested and replated in 35 mm tissue culture flasks containing […] coverslips and incubated until 50-65% confluent (24-36 hours). At this time, coverslips were transferred to a 24-well plate, washed once with fresh DMEM and exposed to cyclic peptide solutions (N-Ac-CHAVC-NH2 (SEQ ID NO:10) and N-Ac-CHGVC-NH2 (SEQ ID NO:20)) at a concentration of 1 mg/mL for 24 hours. Fresh peptide solutions were then added and the cells were left for an additional 24 hours. […]

Melanoma ME 115 cells = experiment: Disruption of melanoma cell adhesion, pan-cadherin immunostaining; format: cell-based, human; conditions: 500 μg/mL, 48 hours
Method: Melanoma ME 115 cells (kindly provided by Meenhard Herlyn, Wistar Institute, Philadelphia, Pa.) were plated on glass coverslips and cultured for 24 hours in 50% keratinocyte growth medium (Clonetics, San Diego, Calif.) and 50% L15. Fresh medium containing the cyclic peptides (final concentration 500 μg/mL media) N-Ac-CHAVC-NH2 (SEQ ID NO:10) or N-Ac-CHGVC-NH2 (SEQ ID NO:20) was then added. Following 24 hours of culture in the presence of the peptides, the medium was removed and fresh medium containing the peptides was added. The cells were fixed 24 hours later with cold methanol and stored in phosphate buffered saline (PBS).
Coverslips were blocked for 1 hour in 3% ovalbumin/PBS and incubated for a further 1 hour in the presence of rabbit pan-cadherin antibody (Sigma Chemical Co., St. Louis, Mo.) diluted 1:500. Primary and secondary antibodies were diluted in PBS containing 6% normal goat serum. Following incubation in the primary antibody, coverslips were washed 3 times for 5 minutes each in PBS and incubated for 1 hour in goat anti-rabbit immunoglobulin G conjugated to fluorescein (Kiekegard and Perry, South San Francisco, Calif.) diluted 1:100. Following a further wash in PBS (3×5 minutes) coverslips were mounted in Vectashield (Vector Labs, Burlingame, Calif.) and viewed with a Zeiss infinity corrected microscope.

L1, sequence (P32004 20-1257): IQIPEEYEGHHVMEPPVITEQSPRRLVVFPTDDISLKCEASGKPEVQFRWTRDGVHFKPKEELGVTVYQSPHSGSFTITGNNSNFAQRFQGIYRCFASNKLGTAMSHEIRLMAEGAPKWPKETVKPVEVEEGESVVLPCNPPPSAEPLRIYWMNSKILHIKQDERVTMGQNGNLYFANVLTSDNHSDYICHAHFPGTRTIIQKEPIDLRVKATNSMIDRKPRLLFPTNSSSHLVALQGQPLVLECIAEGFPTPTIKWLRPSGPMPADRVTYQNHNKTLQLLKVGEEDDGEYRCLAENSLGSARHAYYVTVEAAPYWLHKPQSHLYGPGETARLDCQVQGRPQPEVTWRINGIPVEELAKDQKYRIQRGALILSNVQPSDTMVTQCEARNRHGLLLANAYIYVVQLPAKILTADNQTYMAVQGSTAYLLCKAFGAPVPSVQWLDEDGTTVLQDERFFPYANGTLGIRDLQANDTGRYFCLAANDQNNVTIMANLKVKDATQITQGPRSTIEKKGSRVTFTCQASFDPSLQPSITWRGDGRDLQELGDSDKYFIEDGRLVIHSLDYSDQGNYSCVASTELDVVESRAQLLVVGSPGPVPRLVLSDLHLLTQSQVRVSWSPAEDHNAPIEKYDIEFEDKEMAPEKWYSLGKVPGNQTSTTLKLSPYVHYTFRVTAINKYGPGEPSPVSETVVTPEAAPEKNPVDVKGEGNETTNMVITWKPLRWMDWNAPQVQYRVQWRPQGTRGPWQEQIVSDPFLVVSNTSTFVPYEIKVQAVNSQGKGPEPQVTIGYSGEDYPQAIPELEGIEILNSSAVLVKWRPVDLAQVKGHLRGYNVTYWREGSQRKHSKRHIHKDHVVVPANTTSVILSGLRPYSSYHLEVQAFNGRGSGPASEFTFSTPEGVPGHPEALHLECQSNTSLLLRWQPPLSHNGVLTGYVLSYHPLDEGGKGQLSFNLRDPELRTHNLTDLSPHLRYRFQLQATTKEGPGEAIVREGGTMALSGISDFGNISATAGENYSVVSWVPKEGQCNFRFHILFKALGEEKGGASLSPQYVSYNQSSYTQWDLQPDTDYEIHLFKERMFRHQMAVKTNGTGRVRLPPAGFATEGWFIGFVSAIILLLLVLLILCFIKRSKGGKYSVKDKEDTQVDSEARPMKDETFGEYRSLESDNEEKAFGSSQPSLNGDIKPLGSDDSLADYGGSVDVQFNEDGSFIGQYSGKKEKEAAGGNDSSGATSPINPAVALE

Row | Structure (SMILES) | IC50 (HUVEC) [µM] | effect on neurite outgrowth on 3T3 cells expressing L1 (L1) | E-cadherin expression in NRK cells (immunofluorescence) (NRK cells) | effect on NRK cell adhesion (NRK cells) | cadherin staining in melanoma ME115 cells (Melanoma ME 115 cells) | effect on melanoma cell adhesion (Melanoma ME 115 cells)
1 | CC(=O)N[C@H]1CSSC[C@@H](C(N)=O)NC(=O)[C@H](C(C)C)NC(=O)[C@H](C)NC(=O)[C@H](Cc2c[nH]cn2)NC1=O [N-Ac-CHAVC-NH2, N-Ac-Cys-His-Ala-Val-Cys-NH2] | > 100 | did not inhibit neurite outgrowth | greatly reduced levels of E-cadherin | disrupted NRK cell adhesion; also recorded: retract from one another | absence of cell membrane staining and the appearance of bright intracellular vesicular staining; also recorded: cadherin is localized in intracellular vesicles | disrupts melanoma cell adhesion
2 | CC(=O)N[C@H]1CSSC[C@@H](C(N)=O)NC(=O)[C@H](C(C)C)NC(=O)CNC(=O)[C@H](Cc2c[nH]cn2)NC1=O [N-Ac-CHGVC-NH2, reference compound] | > 100 |  | expressed E-cadherin | had no affect on cell adhesion | displayed cadherin staining all over the cell membrane | 
